# Experiments:
# Format in all cases: in vivo
# [1] = test system: rice seeds (variety of Kinmaze); assay: Root length of germinated rice seeds grown on gelled culture medium containing herbicidal compound A1 and a benzoic acid compound; settings: herbicidal compound A1 0.15 ppm, benzoic acid compound 2 ppm; after 7 days at 25° C.; percentage relative to untreated area
# Procedure: Brine-sorted rice seeds (variety of Kinmaze) were soaked in a 0.5% aqueous solution of sodium hypochlorite for 10 minutes followed by washing in running water for 30 minutes and then kept at 30° C. for 36 hours to cause germination for obtaining germinated seeds. Separately, 0.3 part of gellan gum was dissolved in 100 parts of an aqueous solution of salts for Hoagland's No. 2 culture medium (a product by Sigma Co.). 13 Glass vials of 2 cm internal diameter and 5 cm height were each filled with 15 ml of the solution to which 2-[(4,6-dimethoxypyrimidin-2-yl)hydroxymethyl]-6-methoxymethyl-N-difluoromethane-sulfonylanilide (hereinafter referred to as the herbicidal compound A1) and a variety of the benzoic acid compounds indicated in Table 1 were added to make up concentrations of 0.15 ppm and 2 ppm, respectively, and kept standing to cause gelation of the solutions in the glass vial to prepare a culture medium containing the inventive composition (hereinafter referred to as the inventive culture medium). […]
# Germinated seeds were grown in the same manner as in Example 1, except for not adding a benzoic acid compound to the inventive culture medium. After seven days, the lengths of the roots were measured.
# Rice (Kinmaze) [2] = assay: Rice seedlings at second leaf stage grown in liquid culture medium with herbicidal compound A1 and benzoic acid compounds; settings: herbicidal compound A1 0.1 ppm, benzoic acid compound 3 or 1 ppm (Table 2); after 14 days
# Procedure: The test culture media were prepared by adding, in advance, to a 25% aqueous solution of salts for Murashige & Skoog culture medium (a product of Wako Pure Chemical Industries, Ltd.), the herbicidal compound A1 and various benzoic acid compounds indicated in Table 2 to make up a concentration of 0.1 ppm and the concentrations shown in Table 2, respectively. Fifty ml each of the resulting test culture media were dispensed into a 50 ml Erlenmeyer flask to prepare various liquid culture media. Similarly, the same amount of the 25% aqueous solution of salts for Murashige & Skoog culture medium was added to the above-mentioned flask to prepare a liquid culture medium (hereinafter referred to as the untreated culture medium). Rice (Kinmaze) grown to the second leaf stage in culture soil for raising seedlings was soaked in these culture media, with the root cut off except for a 2 cm-long part thereof, and was grown in a growth chamber under the conditions of 25° C. with the lighting period of 16 hours, and the dark period of 8 hours to measure the plant length of rice, the length of the root and the living masses of the above-ground part and the root after 14 days or, namely, after lapse of 14 cycles.
# Rice was grown in the same manner as in Example 14, except for not adding a benzoic acid compound. After 14 days, the plant length of rice, the length of the root, and the living masses of the above-ground part and the root were measured.
# Rice (Kinmaze) [3] = assay: Rice seedlings at second leaf stage grown in liquid culture medium with various herbicidal compounds and p-(t-butyl)benzoic acid; settings: herbicidal compound at ppm of Table 3, with or without p-(t-butyl)benzoic acid 3 ppm; after 14 days
# Procedure: The test media were prepared by adding, in advance, to a 25% aqueous solution of salts for Murashige & Skoog culture medium (a product by Wako Pure Chemical Industries, Ltd.), various herbicidal compounds indicated in Table 3 and p-(t-butyl)benzoic acid to make up concentrations indicated in Table 3 and a concentration of 3 ppm, respectively. Fifty ml each of the resulting test culture media were dispensed into a 50 ml Erlenmeyer flask to prepare various liquid culture media. Similarly, a liquid culture medium with a herbicidal compound and a benzoic acid compound not added was prepared. Rice (Kinmaze) grown to the second leaf stage in culture soil for raising seedlings was soaked in these culture media, with the root cut off except for a 2 cm-long part thereof, and was grown in a growth chamber (manufactured by SANYO Electric Co., Ltd.) under the conditions of 25° C. with the lighting period of 16 hours, and the dark period of 8 hours to measure the plant length of rice, the length of the root, and the living masses of the above-ground part and the root after 14 days.
# Rice was grown in the same manner as in each of Examples 21 to 25, except for not adding a benzoic acid compound to the culture medium. After 14 days, the plant length of rice, the length of the root, and the living masses of the above-ground part and the root were measured.
compound,measurement,setting,value
"COCc1cccc(C(O)c2nc(OC)cc(OC)n2)c1NS(=O)(=O)C(F)F (stereo not shown) [Comparative Example 1, 2-[(4,6-dimethoxypyrimidin-2-yl)hydroxymethyl]-6-methoxymethyl-N-difluoromethane-sulfonylanilide]",Length of root (%),[1],21%
"COCc1cccc(C(O)c2nc(OC)cc(OC)n2)c1NS(=O)(=O)C(F)F (stereo not shown) [Comparative Example 2, 2-[(4,6-dimethoxypyrimidin-2-yl)hydroxymethyl]-6-methoxymethyl-N-difluoromethane-sulfonylanilide]",Length of root,Rice (Kinmaze) [2],2.1 cm
same,Living mass Above-ground part,Rice (Kinmaze) [2],0.16 g
same,Living mass Root,Rice (Kinmaze) [2],0.07 g
same,Plant length,Rice (Kinmaze) [2],15.6 cm
"COC(=O)c1ccccc1CS(=O)(=O)NC(=O)Nc1nc(OC)cc(OC)n1 [compound 3, Bensulfuron-methyl]",Living mass Above-ground part,Rice (Kinmaze) [3],0.11 g
same,Living mass Root,Rice (Kinmaze) [3],0.05 g
"CCOC(=O)c1cnn(C)c1S(=O)(=O)NC(=O)Nc1nc(OC)cc(OC)n1 [compound 4, Pyrazosulfuron-ethyl]",Length of root,Rice (Kinmaze) [3],2.0 cm
same,Living mass Above-ground part,Rice (Kinmaze) [3],0.07 g
same,Living mass Root,Rice (Kinmaze) [3],0.04 g
same,Plant length,Rice (Kinmaze) [3],11.7 cm
"CCCCOCN(C(=O)CCl)c1c(CC)cccc1CC [compound 5, Butachlor]",Living mass Above-ground part,Rice (Kinmaze) [3],0.14 g
same,Living mass Root,Rice (Kinmaze) [3],0.09 g
"CCN(CC)C(=O)SCc1ccc(Cl)cc1 [compound 6, Thiobencarb]",Living mass Above-ground part,Rice (Kinmaze) [3],0.23 g
same,Living mass Root,Rice (Kinmaze) [3],0.18 g
"CCN(C(=O)n1nnn(-c2ccccc2Cl)c1=O)C1CCCCC1 [compound 7, Fentrazamide]",Length of root,Rice (Kinmaze) [3],2.2 cm
same,Living mass Above-ground part,Rice (Kinmaze) [3],0.08 g
same,Living mass Root,Rice (Kinmaze) [3],0.05 g
same,Plant length,Rice (Kinmaze) [3],11.6 cm

# — patent US8067337B2, “Agricultural chemical composition” (priority 2004, dated 2011)
